Common to all, as to experiment: Enzyme Inhibition Assay
Assay [1] deals with 72 kDa type IV collagenase (Homo sapiens, UniProt P08253). The method, then:
(§1) Inhibitors were assayed against purified hMMP-1, hMMP-2, hMMP-3, hMMP-8, hMMP-9, and hMMP-13 using an enzyme assay based on cleavage of the quenched fluorogenic peptide substrate. The increase in fluorescence due to cleavage of the substrate was measured with a fluorescence microplate reader. The Ki values were calculated by nonlinear regression analysis using the percent inhibition, and Km values of the substrates for each MMP.

Another assay concerns the target Collagenase 3 (Homo sapiens, UniProt P45452). The protocol:
as §1

The target of a further assay is T1, Interstitial collagenase (Homo sapiens, UniProt P03956).
T1 sequence (P03956 whole entry): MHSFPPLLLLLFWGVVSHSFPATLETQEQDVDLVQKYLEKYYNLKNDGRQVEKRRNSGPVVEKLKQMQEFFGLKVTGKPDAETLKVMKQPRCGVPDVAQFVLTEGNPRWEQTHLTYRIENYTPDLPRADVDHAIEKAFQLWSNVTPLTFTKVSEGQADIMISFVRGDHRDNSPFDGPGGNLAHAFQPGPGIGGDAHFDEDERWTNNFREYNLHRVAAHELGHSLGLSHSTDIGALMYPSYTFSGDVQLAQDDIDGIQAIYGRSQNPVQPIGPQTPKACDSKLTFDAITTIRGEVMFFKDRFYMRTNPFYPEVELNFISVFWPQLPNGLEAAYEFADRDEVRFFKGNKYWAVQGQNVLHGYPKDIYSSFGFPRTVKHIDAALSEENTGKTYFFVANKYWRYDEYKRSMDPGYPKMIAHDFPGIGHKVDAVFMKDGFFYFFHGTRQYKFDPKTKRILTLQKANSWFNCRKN
The note with it: pH 7.5; 25 °C. The method, then: as §1

For assay [2], the target named is Matrix metalloproteinase-9 (Homo sapiens, UniProt P14780). The method, then:
as §1

The target in a further assay is Neutrophil collagenase (Homo sapiens, UniProt P22894). The method, then:
as §1

A further assay addresses Stromelysin-1 (Homo sapiens, UniProt P08254). The protocol: as §1

Structures can show the parent of a compound that is named as a salt.

Chain of 72 kDa type IV collagenase (P08253 whole entry): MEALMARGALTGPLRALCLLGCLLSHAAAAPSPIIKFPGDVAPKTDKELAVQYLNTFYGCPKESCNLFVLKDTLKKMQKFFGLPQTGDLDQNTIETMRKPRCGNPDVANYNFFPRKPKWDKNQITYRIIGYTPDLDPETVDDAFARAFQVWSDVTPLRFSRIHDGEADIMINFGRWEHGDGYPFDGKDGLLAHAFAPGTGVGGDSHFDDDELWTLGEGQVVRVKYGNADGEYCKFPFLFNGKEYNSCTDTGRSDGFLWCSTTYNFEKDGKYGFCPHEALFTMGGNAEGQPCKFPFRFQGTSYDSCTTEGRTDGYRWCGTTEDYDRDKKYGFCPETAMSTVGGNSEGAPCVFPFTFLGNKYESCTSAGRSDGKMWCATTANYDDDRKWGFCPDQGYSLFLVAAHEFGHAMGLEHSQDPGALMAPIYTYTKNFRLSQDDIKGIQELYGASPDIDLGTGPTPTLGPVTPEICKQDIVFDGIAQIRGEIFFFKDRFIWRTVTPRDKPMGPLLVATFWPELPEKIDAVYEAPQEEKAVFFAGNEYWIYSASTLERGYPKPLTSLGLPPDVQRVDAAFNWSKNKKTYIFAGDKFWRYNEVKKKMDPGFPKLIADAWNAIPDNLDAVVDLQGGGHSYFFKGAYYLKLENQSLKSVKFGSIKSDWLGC
Chain of Neutrophil collagenase (P22894 whole entry): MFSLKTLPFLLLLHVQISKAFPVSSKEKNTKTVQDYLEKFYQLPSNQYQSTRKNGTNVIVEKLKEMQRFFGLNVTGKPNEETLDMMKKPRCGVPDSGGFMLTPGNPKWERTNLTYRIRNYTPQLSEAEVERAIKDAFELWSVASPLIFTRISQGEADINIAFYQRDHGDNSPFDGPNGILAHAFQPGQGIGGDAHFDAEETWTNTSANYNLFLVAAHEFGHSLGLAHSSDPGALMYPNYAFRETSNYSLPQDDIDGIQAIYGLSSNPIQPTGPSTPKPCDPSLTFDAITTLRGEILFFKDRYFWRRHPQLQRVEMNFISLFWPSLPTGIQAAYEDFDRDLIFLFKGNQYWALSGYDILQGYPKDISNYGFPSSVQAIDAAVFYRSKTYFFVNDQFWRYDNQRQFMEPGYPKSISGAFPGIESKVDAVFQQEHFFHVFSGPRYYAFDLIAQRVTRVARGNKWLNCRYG
Chain of Stromelysin-1 (P08254 whole entry): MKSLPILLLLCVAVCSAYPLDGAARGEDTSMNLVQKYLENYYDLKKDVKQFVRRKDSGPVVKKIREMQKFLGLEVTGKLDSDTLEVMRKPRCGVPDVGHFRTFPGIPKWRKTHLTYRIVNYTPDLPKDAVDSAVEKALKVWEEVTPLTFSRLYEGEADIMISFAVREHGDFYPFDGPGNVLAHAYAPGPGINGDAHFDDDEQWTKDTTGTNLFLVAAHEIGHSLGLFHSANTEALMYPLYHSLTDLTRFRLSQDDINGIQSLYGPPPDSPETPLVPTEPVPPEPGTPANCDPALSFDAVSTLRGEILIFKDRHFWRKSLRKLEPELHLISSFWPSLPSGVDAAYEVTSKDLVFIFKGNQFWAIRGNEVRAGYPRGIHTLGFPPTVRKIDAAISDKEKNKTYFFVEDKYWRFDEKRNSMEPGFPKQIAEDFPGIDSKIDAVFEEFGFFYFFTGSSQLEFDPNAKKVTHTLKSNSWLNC
Chain of Matrix metalloproteinase-9 (P14780 whole entry): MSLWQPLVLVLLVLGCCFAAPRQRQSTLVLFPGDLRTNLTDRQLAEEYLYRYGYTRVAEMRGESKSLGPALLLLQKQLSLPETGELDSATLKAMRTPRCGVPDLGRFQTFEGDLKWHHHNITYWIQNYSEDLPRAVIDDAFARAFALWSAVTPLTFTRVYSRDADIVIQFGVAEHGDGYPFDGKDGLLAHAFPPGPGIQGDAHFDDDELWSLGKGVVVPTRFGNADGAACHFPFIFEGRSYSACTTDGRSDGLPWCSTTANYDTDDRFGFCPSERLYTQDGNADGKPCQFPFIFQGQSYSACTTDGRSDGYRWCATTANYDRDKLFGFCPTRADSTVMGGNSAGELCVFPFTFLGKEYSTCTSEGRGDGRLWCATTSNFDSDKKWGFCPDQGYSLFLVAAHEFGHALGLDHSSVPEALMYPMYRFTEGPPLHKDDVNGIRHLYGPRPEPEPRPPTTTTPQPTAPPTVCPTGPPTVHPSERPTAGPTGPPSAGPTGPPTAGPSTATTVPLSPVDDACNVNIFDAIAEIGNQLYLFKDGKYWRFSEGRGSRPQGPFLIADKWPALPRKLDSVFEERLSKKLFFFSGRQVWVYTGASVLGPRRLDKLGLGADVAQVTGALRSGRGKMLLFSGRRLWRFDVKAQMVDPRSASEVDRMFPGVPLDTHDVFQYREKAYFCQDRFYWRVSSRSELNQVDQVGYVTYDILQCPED

Regarding `O=C(NO)C1(S(=O)(=O)c2ccc(Oc3ccccc3)cc2)CCNCC1` [N-hydroxy-4-[(4-phenoxybenzene)sulfonyl]piperidine-4-carboxamide], the Ki is 0.22 nM in assay [1]; 0.37 nM on Collagenase 3; 1060 nM at Interstitial collagenase; 5 nM in assay [2]; 3.5 nM on Neutrophil collagenase; 59 nM at Stromelysin-1.
With `O=C(NO)C1(CS(=O)(=O)c2ccc(Oc3ccccc3)cc2)CCNCC1` [N-hydroxy-4-{[(4-phenoxybenzene)sulfonyl]methyl}piperidine-4-carboxamide hydrochloride], the Ki in assay [1] was found to be 2.8 nM; at Collagenase 3, 8 nM; on Interstitial collagenase, 2400 nM; in assay [2], 30 nM; at Neutrophil collagenase it was 2.4 nM; at Stromelysin-1, 158 nM.
